ChEMBL document CHEMBL3885881, “DrugMatrix”

Species: Rattus norvegicus
Experiment: DrugMatrix - Regimen: Daily Repeat
Type: toxicity, organism-based, Sprague-Dawley
Parameters: regimen Daily Repeat, gender Male, age 6-8 weeks
Conditions: in vivo, po, route oral GAVAGE; for ABSOLUTE BASOPHIL / ABSOLUTE EOSINOPHIL / ABSOLUTE LYMPHOCYTE / ABSOLUTE MONOCYTE / ABSOLUTE SEGMENTED NEUTROPHIL / BASOPHIL / EOSINOPHIL / ERYTHROCYTE COUNT / HEMATOCRIT / HEMOGLOBIN / LEUKOCYTE COUNT / LYMPHOCYTE / MEAN CORPUSCULAR HEMOGLOBIN / MEAN CORPUSCULAR HEMOGLOBIN CONCENTRATION / MEAN CORPUSCULAR VOLUME / MONOCYTE / NEUTROPHIL / NUCLEATED RED BLOOD CELLS / PLATELET COUNT: tissue Blood; for ALANINE AMINOTRANSFERASE / ALBUMIN / ALKALINE PHOSPHATASE / ASPARTATE AMINOTRANSFERASE / BLOOD UREA NITROGEN / CARBON DIOXIDE / CHLORIDE / CHOLESTEROL / CREATINE PHOSPHOKINASE / CREATININE / GLUCOSE / LACTATE DEHYDROGENASE / LIPASE / PHOSPHORUS / POTASSIUM / SODIUM / TOTAL BILIRUBIN / TOTAL PROTEIN / URIC ACID: tissue Plasma
[1] = 3 mg/kg, 72 h, dose level Low, time 3 day, vehicle .5 % CMC
[2] = 3 mg/kg, 120 h, dose level Low, time 5 day, vehicle .5 % CMC
[3] = 0 mg/kg, 72 h, dose level Control, time 3 day, […]
[4] = 0 mg/kg, 120 h, dose level Control, time 5 day, […]

C=CC[C@@H]1/C=C(\C)C[C@H](C)C[C@H](OC)[C@H]2O[C@@](O)(C(=O)C(=O)N3CCCC[C@H]3C(=O)O[C@H](/C(C)=C/[C@@H]3CC[C@@H](O)[C@H](OC)C3)[C@H](C)[C@@H](O)CC1=O)[C@H](C)C[C@@H]2OC [TACROLIMUS ANHYDROUS]
ABSOLUTE BASOPHIL [1]: 0 CELLS/uL | ABSOLUTE EOSINOPHIL [1]: 115.33 CELLS/uL | ABSOLUTE LYMPHOCYTE [1]: 12942.67 CELLS/uL | ABSOLUTE MONOCYTE [1]: 191 CELLS/uL | ABSOLUTE SEGMENTED NEUTROPHIL [1]: 1684.33 CELLS/uL | BASOPHIL [1]: 0% | EOSINOPHIL [1]: 0.67% | ERYTHROCYTE COUNT [1]: 5.73 x10E6/uL | HEMATOCRIT [1]: 36.53% | HEMOGLOBIN [1]: 13.97 G/DL | LEUKOCYTE COUNT [1]: 14.93 x10E3/uL | LYMPHOCYTE [1]: 86.67% | MEAN CORPUSCULAR HEMOGLOBIN [1]: 24.37 pg | MEAN CORPUSCULAR HEMOGLOBIN CONCENTRATION [1]: 38.27 G/DL | MEAN CORPUSCULAR VOLUME [1]: 63.77 fL | MONOCYTE [1]: 1.33% | NEUTROPHIL [1]: 11.33% | NUCLEATED RED BLOOD CELLS [1]: 0 /100WBC | PLATELET COUNT [1]: 1252.33 x10E3/uL | ALANINE AMINOTRANSFERASE [1]: 50.67 u/L | ALBUMIN [1]: 4.1 G/DL | ALKALINE PHOSPHATASE [1]: 348.33 u/L | ASPARTATE AMINOTRANSFERASE [1]: 75.67 u/L | BLOOD UREA NITROGEN [1]: 16.33 mg/dL | CARBON DIOXIDE [1]: 31.67 mmol/L | CHLORIDE [1]: 99.33 MEQ/L | CHOLESTEROL [1]: 79 mg/dL | CREATINE PHOSPHOKINASE [1]: 194.33 u/L | CREATININE [1]: 0.26 mg/dL | GLUCOSE [1]: 149.33 mg/dL | LACTATE DEHYDROGENASE [1]: 133.33 u/L | LIPASE [1]: 9.33 u/L | PHOSPHORUS [1]: 12.63 mg/dL | POTASSIUM [1]: 6.77 MEQ/L | SODIUM [1]: 144.97 MEQ/L | TOTAL BILIRUBIN [1]: 0.2 mg/dL | TOTAL PROTEIN [1]: 5.83 G/DL | URIC ACID [1]: 1.67 mg/dL | ABSOLUTE BASOPHIL [2]: 0 CELLS/uL | ABSOLUTE EOSINOPHIL [2]: 0 CELLS/uL | ABSOLUTE LYMPHOCYTE [2]: 15415.33 CELLS/uL | ABSOLUTE MONOCYTE [2]: 188 CELLS/uL | ABSOLUTE SEGMENTED NEUTROPHIL [2]: 1663.33 CELLS/uL | BASOPHIL [2]: 0% | EOSINOPHIL [2]: 0% | ERYTHROCYTE COUNT [2]: 5.95 x10E6/uL | HEMATOCRIT [2]: 36.57% | HEMOGLOBIN [2]: 14.1 G/DL | LEUKOCYTE COUNT [2]: 17.27 x10E3/uL | LYMPHOCYTE [2]: 89.33% | MEAN CORPUSCULAR HEMOGLOBIN [2]: 23.77 pg | MEAN CORPUSCULAR HEMOGLOBIN CONCENTRATION [2]: 38.57 G/DL | MEAN CORPUSCULAR VOLUME [2]: 61.53 fL | MONOCYTE [2]: 1% | NEUTROPHIL [2]: 9.67% | NUCLEATED RED BLOOD CELLS [2]: 0 /100WBC | PLATELET COUNT [2]: 1336 x10E3/uL | ALANINE AMINOTRANSFERASE [2]: 51.33 u/L | ALBUMIN [2]: 4.23 G/DL | ALKALINE PHOSPHATASE [2]: 303 u/L | ASPARTATE AMINOTRANSFERASE [2]: 80 u/L | BLOOD UREA NITROGEN [2]: 17 mg/dL | CARBON DIOXIDE [2]: 27.67 mmol/L | CHLORIDE [2]: 101.67 MEQ/L | CHOLESTEROL [2]: 81 mg/dL | CREATINE PHOSPHOKINASE [2]: 231 u/L | CREATININE [2]: 0.2 mg/dL | GLUCOSE [2]: 164 mg/dL | LACTATE DEHYDROGENASE [2]: 171.67 u/L | LIPASE [2]: 9.33 u/L | PHOSPHORUS [2]: 13.2 mg/dL | POTASSIUM [2]: 6.36 MEQ/L | SODIUM [2]: 144.37 MEQ/L | TOTAL BILIRUBIN [2]: 0.2 mg/dL | TOTAL PROTEIN [2]: 6.13 G/DL | URIC ACID [2]: 1.73 mg/dL

CC(=O)[C@H]1CC[C@H]2[C@@H]3CCC4=CC(=O)CC[C@]4(C)[C@H]3CC[C@]12C [PROGESTERONE]
ABSOLUTE BASOPHIL [3]: 0 CELLS/uL | ABSOLUTE EOSINOPHIL [3]: 41.83 CELLS/uL | ABSOLUTE LYMPHOCYTE [3]: 8545.5 CELLS/uL | ABSOLUTE MONOCYTE [3]: 240 CELLS/uL | ABSOLUTE SEGMENTED NEUTROPHIL [3]: 906 CELLS/uL | BASOPHIL [3]: 0% | EOSINOPHIL [3]: 0.33% | ERYTHROCYTE COUNT [3]: 5.6 x10E6/uL | HEMATOCRIT [3]: 35.4% | HEMOGLOBIN [3]: 13.42 G/DL | LEUKOCYTE COUNT [3]: 9.73 x10E3/uL | LYMPHOCYTE [3]: 87.83% | MEAN CORPUSCULAR HEMOGLOBIN [3]: 23.98 pg | MEAN CORPUSCULAR HEMOGLOBIN CONCENTRATION [3]: 37.92 G/DL | MEAN CORPUSCULAR VOLUME [3]: 63.3 fL | MONOCYTE [3]: 2.5% | NEUTROPHIL [3]: 9.33% | NUCLEATED RED BLOOD CELLS [3]: 0 /100WBC | PLATELET COUNT [3]: 1032 x10E3/uL | ALANINE AMINOTRANSFERASE [3]: 72.83 u/L | ALKALINE PHOSPHATASE [3]: 322.83 u/L | ASPARTATE AMINOTRANSFERASE [3]: 102.67 u/L | BLOOD UREA NITROGEN [3]: 12 mg/dL | CARBON DIOXIDE [3]: 34.33 mmol/L | CHLORIDE [3]: 97.67 MEQ/L | CHOLESTEROL [3]: 82.5 mg/dL | CREATINE PHOSPHOKINASE [3]: 410.33 u/L | CREATININE [3]: 0.18 mg/dL | GLUCOSE [3]: 164.5 mg/dL | LACTATE DEHYDROGENASE [3]: 119.5 u/L | LIPASE [3]: 11.83 u/L | PHOSPHORUS [3]: 9.52 mg/dL | POTASSIUM [3]: 5.56 MEQ/L | SODIUM [3]: 142.48 MEQ/L | TOTAL BILIRUBIN [3]: 0.18 mg/dL | TOTAL PROTEIN [3]: 5.77 G/DL | URIC ACID [3]: 0.48 mg/dL | ABSOLUTE BASOPHIL [4]: 0 CELLS/uL | ABSOLUTE EOSINOPHIL [4]: 0 CELLS/uL | ABSOLUTE LYMPHOCYTE [4]: 9065 CELLS/uL | ABSOLUTE MONOCYTE [4]: 341.33 CELLS/uL | ABSOLUTE SEGMENTED NEUTROPHIL [4]: 527 CELLS/uL | BASOPHIL [4]: 0% | EOSINOPHIL [4]: 0% | ERYTHROCYTE COUNT [4]: 5.25 x10E6/uL | HEMATOCRIT [4]: 34.08% | HEMOGLOBIN [4]: 13.5 G/DL | LEUKOCYTE COUNT [4]: 9.93 x10E3/uL | LYMPHOCYTE [4]: 91.17% | MEAN CORPUSCULAR HEMOGLOBIN [4]: 25.7 pg | MEAN CORPUSCULAR HEMOGLOBIN CONCENTRATION [4]: 39.62 G/DL | MEAN CORPUSCULAR VOLUME [4]: 64.93 fL | MONOCYTE [4]: 3.33% | NEUTROPHIL [4]: 5.5% | NUCLEATED RED BLOOD CELLS [4]: 0 /100WBC | PLATELET COUNT [4]: 1077.5 x10E3/uL | ALANINE AMINOTRANSFERASE [4]: 57.83 u/L | ALKALINE PHOSPHATASE [4]: 319.17 u/L | ASPARTATE AMINOTRANSFERASE [4]: 83.33 u/L | BLOOD UREA NITROGEN [4]: 13.67 mg/dL | CARBON DIOXIDE [4]: 30.83 mmol/L | CHLORIDE [4]: 98.33 MEQ/L | CHOLESTEROL [4]: 64.83 mg/dL | CREATINE PHOSPHOKINASE [4]: 263.67 u/L | CREATININE [4]: 0.2 mg/dL | GLUCOSE [4]: 182.83 mg/dL | LACTATE DEHYDROGENASE [4]: 124 u/L | LIPASE [4]: 10.5 u/L | PHOSPHORUS [4]: 10 mg/dL | POTASSIUM [4]: 5.78 MEQ/L | SODIUM [4]: 142.48 MEQ/L | TOTAL BILIRUBIN [4]: 0.2 mg/dL | TOTAL PROTEIN [4]: 6 G/DL | URIC ACID [4]: 0.7 mg/dL
